Experimental data published in PubChem BioAssay AID1259407 (Chemical Carcinogenesis Research Information System (CCRIS), 2018).
Activity calls are given as the source filed them. How the calls were made is not given here.

System: CCRIS mutagenicity, Ames/micronucleus/aberration tests
Experiment: CCRIS mutagenicity studies

How did the mutagenic call (End Point: IN VITRO MICRONUCLEUS, Test System: AHH-1 CELLS, Metabolic Activation: NONE) turn out when `CCN(CC)N=O` was run?
Its mutagenic call is “active; positive”.

And the mutagenic call (End Point: IN VITRO MICRONUCLEUS, Test System: MCL-5 CELLS, Metabolic Activation: NONE)?
The mutagenic call was “active; positive”.

What about the mutagenic call (Test System: AMES SALMONELLA TYPHIMURIUM, Strain/Indicator: TA97, Metabolic Activation: NONE, Method: PREINCUBATION) of the same compound?
Its mutagenic call is “inactive; negative”.

And the mutagenic call (Test System: AMES SALMONELLA TYPHIMURIUM, Strain/Indicator: TA97, Metabolic Activation: RAT LIVER S-9, AROCLOR, Method: PREINCUBATION)?
The mutagenic call was “inactive; negative”.

And the mutagenic call (Test System: AMES SALMONELLA TYPHIMURIUM, Strain/Indicator: TA98, Metabolic Activation: HAMSTER, LIVER, S-9, AROCLOR 1254 (30%), Method: PREINCUBATION)?
Its mutagenic call is “active; positive”.

What about the mutagenic call (Test System: AMES SALMONELLA TYPHIMURIUM, Strain/Indicator: TA98, Metabolic Activation: NONE, Method: PREINCUBATION) of the same compound?
The mutagenic call was “active; positive”.

And the mutagenic call (Test System: AMES SALMONELLA TYPHIMURIUM, Strain/Indicator: TA98, Metabolic Activation: RAT LIVER S-9, AROCLOR, Method: PREINCUBATION)?
Its mutagenic call is “active; positive”.

And the mutagenic call (Test System: AMES SALMONELLA TYPHIMURIUM, Strain/Indicator: TA98, Metabolic Activation: RAT, LIVER, S-9, AROCLOR 1254 (30%), Method: PREINCUBATION)?
The mutagenic call was “inactive; negative”.

And the mutagenic call (Test System: AMES SALMONELLA TYPHIMURIUM, Strain/Indicator: TA98, Metabolic Activation: RAT, LIVER, S-9, AROCLOR 1254, Method: STANDARD PLATE)?
The mutagenic call was “active; positive”.

What about the mutagenic call (Test System: AMES SALMONELLA TYPHIMURIUM, Strain/Indicator: TA98, Metabolic Activation: RAT, LIVER, S-9, KC500 OR PHENOBARBITAL, Method: LIQUID SUSPENSION) of the same compound?
Its mutagenic call is “active; positive”.

And the mutagenic call (Test System: AMES SALMONELLA TYPHIMURIUM, Strain/Indicator: TA98, Metabolic Activation: RAT, LIVER, S-9, PHENOBARBITAL, Method: PREINCUBATION)?
The mutagenic call was “active; positive”.

And the mutagenic call (Test System: AMES SALMONELLA TYPHIMURIUM, Strain/Indicator: TA98NR, Metabolic Activation: NONE, Method: PREINCUBATION)?
The mutagenic call was “inactive; negative”.

And the mutagenic call (Test System: AMES SALMONELLA TYPHIMURIUM, Strain/Indicator: TA98NR, Metabolic Activation: RAT LIVER S-9, AROCLOR, Method: PREINCUBATION)?
The mutagenic call was “active; positive”.

And the mutagenic call (Test System: AMES SALMONELLA TYPHIMURIUM, Strain/Indicator: TA100, Metabolic Activation: HAMSTER, LIVER, S-9, AROCLOR 1254 (30%), Method: PREINCUBATION)?
The mutagenic call was “active; positive”.

What about the mutagenic call (Test System: AMES SALMONELLA TYPHIMURIUM, Strain/Indicator: TA100, Metabolic Activation: MOUSE, INTACT UROTHELIAL CELLS, Method: FLUCTUATION TEST) of the same compound?
The mutagenic call was “active; positive”.

And the mutagenic call (Test System: AMES SALMONELLA TYPHIMURIUM, Strain/Indicator: TA100, Metabolic Activation: MOUSE, KIDNEY, S-9, PHENETHYL ISOTHIOCYANATE, Method: PREINCUBATION)?
Its mutagenic call is “inactive; negative”.

And the mutagenic call (Test System: AMES SALMONELLA TYPHIMURIUM, Strain/Indicator: TA100, Metabolic Activation: MOUSE, KIDNEY, S-9, Method: PREINCUBATION)?
The mutagenic call was “active; positive”.

And the mutagenic call (Test System: AMES SALMONELLA TYPHIMURIUM, Strain/Indicator: TA100, Metabolic Activation: MOUSE, LIVER, S-9, PHENETHYL ISOTHIOCYANATE, Method: PREINCUBATION)?
The mutagenic call was “inactive; negative”.

What about the mutagenic call (Test System: AMES SALMONELLA TYPHIMURIUM, Strain/Indicator: TA100, Metabolic Activation: MOUSE, LIVER, S-9, Method: PREINCUBATION) of the same compound?
Its mutagenic call is “active; positive”.

What about the mutagenic call (Test System: AMES SALMONELLA TYPHIMURIUM, Strain/Indicator: TA100, Metabolic Activation: MOUSE, LUNG, S-9, PHENETHYL ISOTHIOCYANATE, Method: PREINCUBATION) of the same compound?
Its mutagenic call is “inactive; negative”.

What about the mutagenic call (Test System: AMES SALMONELLA TYPHIMURIUM, Strain/Indicator: TA100, Metabolic Activation: MOUSE, LUNG, S-9, Method: PREINCUBATION) of the same compound?
The mutagenic call was “inactive; negative”.

And the mutagenic call (Test System: AMES SALMONELLA TYPHIMURIUM, Strain/Indicator: TA100, Metabolic Activation: NONE, Method: STANDARD PLATE)?
Its mutagenic call is “inactive; negative”.

And the mutagenic call (Test System: AMES SALMONELLA TYPHIMURIUM, Strain/Indicator: TA100, Metabolic Activation: RABBIT, LIVER, S-9, Method: STANDARD PLATE)?
The mutagenic call was “inactive; negative”.

And the mutagenic call (Test System: AMES SALMONELLA TYPHIMURIUM, Strain/Indicator: TA100, Metabolic Activation: RABBIT, LUNG, S-9, Method: STANDARD PLATE)?
The mutagenic call was “inactive; negative”.

What about the mutagenic call (Test System: AMES SALMONELLA TYPHIMURIUM, Strain/Indicator: TA100, Metabolic Activation: RABBIT, NASAL, S-9, Method: STANDARD PLATE) of the same compound?
The mutagenic call was “inactive; negative”.

What about the mutagenic call (Test System: AMES SALMONELLA TYPHIMURIUM, Strain/Indicator: TA100, Metabolic Activation: RAT LIVER S-9, AROCLOR, Method: PREINCUBATION) of the same compound?
Its mutagenic call is “active; positive”.

And the mutagenic call (Test System: AMES SALMONELLA TYPHIMURIUM, Strain/Indicator: TA100, Metabolic Activation: RAT, INTACT UROTHELIAL CELLS, Method: FLUCTUATION TEST)?
The mutagenic call was “active; positive”.

What about the mutagenic call (Test System: AMES SALMONELLA TYPHIMURIUM, Strain/Indicator: TA100, Metabolic Activation: RAT, LIVER, S-9, AROCLOR 1254 (30%), Method: PREINCUBATION) of the same compound?
The mutagenic call was “inactive; negative”.

What about the mutagenic call (Test System: AMES SALMONELLA TYPHIMURIUM, Strain/Indicator: TA100, Metabolic Activation: RAT, LIVER, S-9, AROCLOR 1254, Method: PREINCUBATION) of the same compound?
Its mutagenic call is “active; positive”.

What about the mutagenic call (Test System: AMES SALMONELLA TYPHIMURIUM, Strain/Indicator: TA100, Metabolic Activation: RAT, LIVER, S-9, KC500 OR PHENOBARBITAL, Method: LIQUID SUSPENSION) of the same compound?
Its mutagenic call is “active; positive”.

And the mutagenic call (Test System: AMES SALMONELLA TYPHIMURIUM, Strain/Indicator: TA100, Metabolic Activation: RAT, LIVER, S-9, PHENOBARBITAL, Method: PREINCUBATION)?
The mutagenic call was “active; positive”.

What about the mutagenic call (Test System: AMES SALMONELLA TYPHIMURIUM, Strain/Indicator: TA100, Metabolic Activation: RAT, LUNG, S-9, Method: STANDARD PLATE) of the same compound?
Its mutagenic call is “inactive; negative”.

What about the mutagenic call (Test System: AMES SALMONELLA TYPHIMURIUM, Strain/Indicator: TA100, Metabolic Activation: RAT, NASAL, S-9, Method: STANDARD PLATE) of the same compound?
Its mutagenic call is “inactive; negative”.

And the mutagenic call (Test System: AMES SALMONELLA TYPHIMURIUM, Strain/Indicator: TA100, Metabolic Activation: S-9, Method: PREINCUBATION)?
Its mutagenic call is “inactive; negative”.

What about the mutagenic call (Test System: AMES SALMONELLA TYPHIMURIUM, Strain/Indicator: TA102, Metabolic Activation: NONE, Method: PREINCUBATION) of the same compound?
Its mutagenic call is “inactive; negative”.

What about the mutagenic call (Test System: AMES SALMONELLA TYPHIMURIUM, Strain/Indicator: TA102, Metabolic Activation: RAT LIVER S-9, AROCLOR, Method: PREINCUBATION) of the same compound?
The mutagenic call was “inactive; negative”.

And the mutagenic call (Test System: AMES SALMONELLA TYPHIMURIUM, Strain/Indicator: TA104, Metabolic Activation: RAT, LIVER, S-9, AROCLOR 1254, Method: PREINCUBATION)?
Its mutagenic call is “active; positive”.

What about the mutagenic call (Test System: AMES SALMONELLA TYPHIMURIUM, Strain/Indicator: TA1530, Metabolic Activation: RAT, LIVER, S-9, PHENOBARBITAL, Method: PREINCUBATION) of the same compound?
Its mutagenic call is “active; positive”.

And the mutagenic call (Test System: AMES SALMONELLA TYPHIMURIUM, Strain/Indicator: TA1530, Metabolic Activation: RAT, LIVER, S-9, Method: STANDARD PLATE)?
The mutagenic call was “active; positive”.

And the mutagenic call (Test System: AMES SALMONELLA TYPHIMURIUM, Strain/Indicator: TA1535, Metabolic Activation: NONE, Method: PREINCUBATION)?
The mutagenic call was “inactive; negative”.

And the mutagenic call (Test System: AMES SALMONELLA TYPHIMURIUM, Strain/Indicator: TA1535, Metabolic Activation: RAT, LIVER, HEPATOCYTES, Method: PREINCUBATION)?
The mutagenic call was “active; positive”.

And the mutagenic call (Test System: AMES SALMONELLA TYPHIMURIUM, Strain/Indicator: TA1535, Metabolic Activation: RAT, LIVER, S-9, AROCLOR 1254, Method: PREINCUBATION)?
Its mutagenic call is “active; positive”.

What about the mutagenic call (Test System: AMES SALMONELLA TYPHIMURIUM, Strain/Indicator: TA1535, Metabolic Activation: RAT, LIVER, S-9, AROCLOR, Method: PREINCUBATION) of the same compound?
The mutagenic call was “active; positive”.

And the mutagenic call (Test System: AMES SALMONELLA TYPHIMURIUM, Strain/Indicator: TA1535, Metabolic Activation: RAT, LIVER, S-9, SODIUM PHENOBARBITONE, Method: PREINCUBATION)?
Its mutagenic call is “active; positive”.

And the mutagenic call (Test System: AMES SALMONELLA TYPHIMURIUM, Strain/Indicator: TA1535, Metabolic Activation: RAT, LIVER, S-9, Method: PREINCUBATION)?
The mutagenic call was “active; positive”.

What about the mutagenic call (Test System: AMES SALMONELLA TYPHIMURIUM, Strain/Indicator: TA1535, Metabolic Activation: S-9, Method: PREINCUBATION) of the same compound?
Its mutagenic call is “inactive; negative”.

What about the mutagenic call (Test System: AMES SALMONELLA TYPHIMURIUM, Strain/Indicator: TA1535ER, Metabolic Activation: NONE, Method: STANDARD PLATE) of the same compound?
Its mutagenic call is “inactive; negative”.

And the mutagenic call (Test System: AMES SALMONELLA TYPHIMURIUM, Strain/Indicator: TA1975, Metabolic Activation: RAT, LIVER, S-9, AROCLOR 1254, Method: PREINCUBATION)?
The mutagenic call was “active; positive”.
